target: T1, recombinant guanylate cyclase reporter cell line (Rattus norvegicus, UniProt P19686+P20595); test: Effect on a recombinant guanylate cyclase reporter cell line; type: cell-based; details: MEC = minimum effective concentration; in some cases mean values for individual determinations
T1 construct: expressed in transfected cells
T1 sequence (P19686 1-690): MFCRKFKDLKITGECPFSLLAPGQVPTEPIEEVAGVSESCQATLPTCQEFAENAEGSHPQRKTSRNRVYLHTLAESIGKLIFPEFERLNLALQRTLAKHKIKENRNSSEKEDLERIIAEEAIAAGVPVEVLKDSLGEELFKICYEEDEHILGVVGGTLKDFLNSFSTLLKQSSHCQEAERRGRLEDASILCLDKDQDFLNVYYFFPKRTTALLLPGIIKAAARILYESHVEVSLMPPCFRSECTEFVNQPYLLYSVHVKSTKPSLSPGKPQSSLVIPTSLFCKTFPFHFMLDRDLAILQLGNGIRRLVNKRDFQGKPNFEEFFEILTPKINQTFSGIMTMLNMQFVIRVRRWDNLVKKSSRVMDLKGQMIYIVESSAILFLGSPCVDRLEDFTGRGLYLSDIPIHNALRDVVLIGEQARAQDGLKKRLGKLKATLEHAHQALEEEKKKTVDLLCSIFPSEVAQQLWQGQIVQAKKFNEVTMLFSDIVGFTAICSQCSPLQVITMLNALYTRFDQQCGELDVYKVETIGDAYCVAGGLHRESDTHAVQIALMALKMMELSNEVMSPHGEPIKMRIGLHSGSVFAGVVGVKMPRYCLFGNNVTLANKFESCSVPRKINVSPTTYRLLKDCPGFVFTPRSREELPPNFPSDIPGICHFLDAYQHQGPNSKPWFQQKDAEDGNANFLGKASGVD
T1 sequence (P20595 1-619): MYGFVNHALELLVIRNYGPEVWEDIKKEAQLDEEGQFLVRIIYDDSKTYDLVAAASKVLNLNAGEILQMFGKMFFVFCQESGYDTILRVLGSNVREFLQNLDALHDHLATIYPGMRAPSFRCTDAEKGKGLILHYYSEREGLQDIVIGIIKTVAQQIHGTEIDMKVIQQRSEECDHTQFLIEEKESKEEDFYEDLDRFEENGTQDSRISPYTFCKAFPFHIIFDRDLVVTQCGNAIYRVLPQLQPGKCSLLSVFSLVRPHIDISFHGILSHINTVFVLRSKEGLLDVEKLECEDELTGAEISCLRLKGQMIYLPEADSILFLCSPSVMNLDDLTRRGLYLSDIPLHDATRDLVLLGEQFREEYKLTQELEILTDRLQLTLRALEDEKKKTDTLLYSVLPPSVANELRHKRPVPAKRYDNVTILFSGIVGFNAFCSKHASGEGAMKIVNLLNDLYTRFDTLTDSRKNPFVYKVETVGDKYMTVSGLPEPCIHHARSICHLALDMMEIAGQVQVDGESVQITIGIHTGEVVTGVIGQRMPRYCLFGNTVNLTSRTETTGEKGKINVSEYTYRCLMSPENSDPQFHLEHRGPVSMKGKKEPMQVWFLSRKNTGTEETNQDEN
Experimental: B-2. Effect on a Recombinant Guanylate Cyclase Reporter Cell Line
The cellular action of the compounds of the invention is determined using a recombinant guanylate cyclase reporter cell line, as described in F. Wunder et al., Anal. Biochem. 339, 104-112 (2005).
Representative MEC values (MEC=minimum effective concentration) for the compounds of the invention are shown in the table below (in some cases as mean values for individual determinations): […]

Row | Compound | MEC [µM]
1 | 8-[(2,6-difluorobenzyl)oxy]-N-[1-(2- hydroxyethyl)-5-methyl-3-(trifluoromethyl)-1H- pyrazol-4-yl]-2,6-dimethylimidazo[1,2-a]pyridine- 3-carboxamide [Example 118] | 0.1
2 | Cc1nc2c(OCc3c(F)cccc3F)cccn2c1C(=O)Nc1cnn2ccccc12 [Example 1, 8-[(2,6-Difluorobenzyl)oxy]-2-methyl-N-(pyrazolo[1,5-a]pyridin-3-yl)imidazo[1,2-a]pyridine-3-carboxamide] | 0.1
3 | Cc1nc2c(OCc3c(F)cccc3F)cccn2c1C(=O)Nc1c[nH]c2ccccc12 [Example 2] | 0.1
4 | Cc1n[nH]cc1NC(=O)c1c(C)nc2c(OCc3c(F)cccc3F)cccn12 [Example 3] | 0.3
5 | Cc1nn(C)cc1NC(=O)c1c(C)nc2c(OCc3c(F)cccc3F)cccn12 [Example 4] | 0.3
6 | Cc1cccc(NC(=O)c2c(C)nc3c(OCc4c(F)cccc4F)cccn23)n1 [Example 5] | 0.3
7 | Cc1nc2c(OCc3c(F)cccc3F)cccn2c1C(=O)Nc1ccc2c(c1)OCC(=O)N2 [Example 6] | 0.1
8 | CCc1cc(NC(=O)c2c(C)nc3c(OCc4c(F)cccc4F)cccn23)ccn1 [Example 8] | 0.1
9 | Cc1ccc(F)c(NC(=O)c2c(C)nc3c(OCc4c(F)cccc4F)cccn23)c1 [Example 9] | 0.3
10 | Cc1nc2c(OCc3c(F)cccc3F)cccn2c1C(=O)Nc1ccccc1F [Example 10] | 0.3
11 | Cc1nc2c(OCc3c(F)cccc3F)cccn2c1C(=O)Nc1ccccc1 [Example 11] | 0.3
12 | Cc1cccc(NC(=O)c2c(C)nc3c(OCc4c(F)cccc4F)cccn23)c1C [Example 12] | 0.3
13 | COc1cccc(NC(=O)c2c(C)nc3c(OCc4c(F)cccc4F)cccn23)c1 [Example 13] | 0.3
14 | Cc1nc2c(OCc3c(F)cccc3F)cccn2c1C(=O)Nc1cccc(Cl)c1C [Example 14] | 0.3
15 | COc1cccc(C)c1NC(=O)c1c(C)nc2c(OCc3c(F)cccc3F)cccn12 [Example 15] | 0.3
16 | COc1ccc(C)c(NC(=O)c2c(C)nc3c(OCc4c(F)cccc4F)cccn23)c1 [Example 16] | 0.3

The remaining lines, values ahead:

Row | MEC [µM] | Compound
17 | 10 | Cc1nc2c(OCc3c(F)cccc3F)cccn2c1C(=O)Nc1cnn(CCN2CCC(O)C2)c1 (racemic) [Example 131, rac-8-[(2,6-difluorobenzyl)oxy]-N-{1-[2-(3-hydroxypyrrolidin-1-yl)ethyl]-1H-pyrazol-4-yl}-2-methylimidazol[1,2-a] pyridine-3-carboxamide]
18 | 0.3 | Cc1nc2c(OCc3c(F)cccc3F)cccn2c1C(=O)Nc1cccc(C(C)O)c1 (stereo not shown) [Example 17]
19 | 0.3 | CC(=O)Nc1ccc(NC(=O)c2c(C)nc3c(OCc4c(F)cccc4F)cccn23)cc1C(F)(F)F [Example 18]
20 | 3.0 | Cc1nc2c(OCc3c(F)cccc3F)cccn2c1C(=O)Nc1cc[nH]n1 [Example 19]
21 | 1.0 | CCn1nccc1NC(=O)c1c(C)nc2c(OCc3c(F)cccc3F)cccn12 [Example 20]
22 | 1.0 | Cc1nc2c(OCc3c(F)cccc3F)cccn2c1C(=O)Nc1ccnn1C(C)C [Example 21]
23 | 1.43 | Cc1nc2c(OCc3c(F)cccc3F)cccn2c1C(=O)Nc1cnn(CCO)c1 [Example 22, 8-[(2,6-Difluorobenzyl)oxy]-N-[1-(2-hydroxyethyl)-1H-pyrazol-4-yl]-2-methylimidazo[1,2-a]pyridine-3-carboxamide]
24 | 0.65 | Cc1noc(C)c1NC(=O)c1c(C)nc2c(OCc3c(F)cccc3F)cccn12 [Example 23, 8-[(2,6-difluorobenzyl)oxy]-N-(3,5-dimethyl-1,2-oxazol-4-yl)-2-methylimidazo[1,2-a]pyridine-3-carboxamide]
25 | 3.0 | Cc1nc2c(OCc3c(F)cccc3F)cccn2c1C(=O)Nc1cnn(CC(N)=O)c1 [Example 25, N-[1-(2-amino-2-oxoethyl)-1H-pyrazol-4-yl]-8-[(2,6-difluorobenzyl)oxy]-2-methylimidazo[1,2-a]pyridine-3-carboxamide]
26 | 1.0 | COCCn1cc(NC(=O)c2c(C)nc3c(OCc4c(F)cccc4F)cccn23)cn1 [Example 26, 8-[(2,6-difluorobenzyl)oxy]-N-[1-(2-methoxyethyl)-1H-pyrazol-4-yl]-2-methylimidazo[1,2-a]pyridine-3-carboxamide]
27 | 0.3 | Cc1nc2c(OCc3c(F)cccc3F)cccn2c1C(=O)Nc1cnn(C(C)C)c1 [Example 27, 8-[(2,6-difluorobenzyl)oxy]-N-(1-isopropyl-1H-pyrazol-4-yl)-2-methylimidazo[1,2-a]pyridine-3-carboxamide]
28 | 0.53 | Cc1n[nH]c(C)c1NC(=O)c1c(C)nc2c(OCc3c(F)cccc3F)cccn12 [Example 29, 8-[(2,6-difluorobenzyl)oxy]-N-(3,5-dimethyl-1H-pyrazol-4-yl)-2-methylimidazo[1,2-a]pyridine-3-carboxamide]
29 | 0.3 | Cc1nc2c(OCc3c(F)cccc3F)cccn2c1C(=O)Nc1cnn(CC(F)(F)F)c1 [Example 30, 8-[(2,6-difluorobenzyl)oxy]-2-methyl-N-[1-(2,2,2-trifluoroethyl)-1H-pyrazol-4-yl]imidazo[1,2-a]pyridine-3-carboxamide]
30 | 1.0 | Cc1nc2c(OCc3c(F)cccc3F)cccn2c1C(=O)Nc1cn[nH]c1 [Example 31, 8-[(2,6-difluorobenzyl)oxy]-2-methyl-N-(1H-pyrazol-4-yl)imidazo[1,2-a]pyridine-3-carboxamide]
31 | 1.0 | Cc1nn(CC(F)(F)F)c(C)c1NC(=O)c1c(C)nc2c(OCc3c(F)cccc3F)cccn12 [Example 32, 8-[(2,6-difluorobenzyl)oxy]-N-[3,5-dimethyl-1-(2,2,2-trifluoroethyl)-1H-pyrazol-4-yl]-2-methylimidazo[1,2-a]pyridine-3-carboxamide]
32 | 1.0 | Cc1nn(CC(F)(F)F)cc1NC(=O)c1c(C)nc2c(OCc3c(F)cccc3F)cccn12 [Example 33, 8-[(2,6-difluorobenzyl)oxy]-2-methyl-N-[3-methyl-1-(2,2,2-trifluoroethyl)-1H-pyrazol-4-yl]imidazo[1,2-a]pyridine-3-carboxamide]
33 | 1.0 | Cc1nn(C)c(N2CCOCC2)c1NC(=O)c1c(C)nc2c(OCc3c(F)cccc3F)cccn12 [Example 34, 8-[(2,6-difluorobenzyl)oxy]-N-[1,3-dimethyl-5-(morpholin-4-yl)-1H-pyrazol-4-yl]-2-methylimidazo[1,2-a]pyridine-3-carboxamide]
34 | 3.0 | Cc1nc2c(OCc3c(F)cccc3F)cccn2c1C(=O)Nc1cnn(Cc2cccc(F)c2)c1 [Example 35, 8-[(2,6-difluorobenzyl)oxy]-N-[1-(3-fluorobenzyl)-1H-pyrazol-4-yl]-2-methylimidazo[1,2-a]pyridine-3-carboxamide]
35 | 1.0 | CNC(=O)c1c(NC(=O)c2c(C)nc3c(OCc4c(F)cccc4F)cccn23)cnn1C [Example 36, 8-[(2,6-difluorobenzyl)oxy]-2-methyl-N-[1-methyl-5-(methylcarbamoyl)-1H-pyrazol-4-yl]imidazo[1,2-a]pyridine-3-carboxamide]
36 | 0.3 | Cc1nn(CCO)c(C)c1NC(=O)c1c(C)nc2c(OCc3c(F)cccc3F)cccn12 [Example 37, 8-[(2,6-difluorobenzyl)oxy]-N-[1-(2-hydroxyethyl)-3,5-dimethyl-1H-pyrazol-4-yl]-2-methylimidazo[1,2-a]pyridine-3-carboxamide]
37 | 1.0 | CCn1nc(C)c(NC(=O)c2c(C)nc3c(OCc4c(F)cccc4F)cccn23)c1C [Example 38, 8-[(2,6-Difluorobenzyl)oxy]-N-(1-ethyl-3,5-dimethyl-1H-pyrazol-4-yl)-2-methylimidazo[1,2-a]pyridine-3-carboxamide]
